In test [1] the test system is breast cancer cell line MX-1. The experiment in a line: MX-1 cell line proliferation assay. The format is cell-based. Conditions: MX-1 cells, 3-day proliferation assay, Cell Titer Glo; read-out: Cellular proliferation: EC50. The protocol:
MX-1 Cell Line Proliferation Assay
The impact of compounds of the Examples on cancer cell proliferation was determined using the breast cancer cell line MX-1 (ATCC) in a 3-day proliferation assay and the data are reported in Table 1. MX-1 cells were maintained in RPMI 1640 medium (Sigma) supplemented with 10% FBS at 37 C.° and an atmosphere of 5% CO2. For compound testing, MX-1 cells were plated in 96-well black bottom plates at a density of 5000 cells/well in 90 μL of culture media and incubated at 37° overnight to allow cell adhesion and spreading. Compound dilution series were prepared in DMSO via a 3-fold serial dilution from 3 mM to 0.1 μM. The DMSO dilution series were then diluted 1:100 in phosphate buffered saline, and 10 μL of the resulted solution were added to the appropriate wells of the MX-1 cell plate. The final compound concentrations in the wells were 3, 1, 0.3, 0.1, 0.03, 0.01, 0.003, 0.001, 0.0003, and 0.0001 μM or 1, 0.3, 0.1, 0.03, 0.01, 0.003, 0.001, 0.0003, 0.0001, and 0.00003 μM.
Luminescence readings from the Cell Titer Glo assay were normalized to the DMSO treated cells and analyzed using the GraphPad Prism software with sigmoidal curve fitting to obtain EC50s. The minimum significant ratio (MSR) was determined to evaluate assay reproducibility (Eastwood et al., (2006) J Biomol Screen, 11: 253-261). The overall MSR was determined to be 2.1 and a moving MSR (last six run MSR overtime) has been <2.

Test [2] addresses T1, BRD4 (BDI_K57-E168) (Homo sapiens, UniProt O60885).
T1 construct: BD1: amino acids K57-E168; made in house
The experiment in a line: TR-FRET bromodomain binding assay, first bromodomain of BRD4. Conditions: 100 nM probe. An outline of the steps:
(§1)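 Probe displacement by TR-FRET: 8 nM His-BRD4 bromodomain, 1 nM Eu-anti-His, Alexa647 BET-inhibitor probe at 100 nM (BDI) or 30 nM (BDII); 20 mM Na phosphate pH 6.0, 2% DMSO; 1 h RT. Ex 340, Em 495/520. IC50 from 4PL fit; Ki from IC50, probe Kd and probe concentration.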
On the technique in general: TR-FRET usually uses a lanthanide donor and a delayed reading to cut background.

The target in test [3] is T2, BRD4 (BDII_E352-M457) (Homo sapiens, UniProt O60885).
T2 construct: protocol; made in house
The experiment in a line: TR-FRET bromodomain binding assay, second bromodomain of BRD4. The settings on record: 30 nM probe. The gist of the method: as §1

[4] abbreviates: TR-FRET assay protocol G (compound 0.92 μM-15 pM).
Where [5] appears, read: TR-FRET assay protocol E (compound 9.19 μM-150 pM).

What is called Ki is the equilibrium dissociation constant of an inhibitor or competing ligand from its target. A higher Ki goes with a looser hold on the target.

Consider `Cn1cc2c3c(c[nH]c3c1=O)C(C(=O)NCc1ccccc1)N(c1ccc(F)cc1F)c1ccc(CS(C)(=O)=O)cc1-2` (racemic) [Example 159, N-benzyl-4-(2,4-difluorophenyl)-10-methyl-7-((methylsulfonyl)methyl)-11-oxo-3,4,10,11-tetrahydro-1H-1,4,10-triazadibenzo[cd,f]azulene-3-carboxamide], for which the EC50 in test [1] came to 57.8 nM. In addition, the values for the Ki in test [2] (setting [4]) and in test [3] (setting [4]) were 38.6 nM and 19.8 nM, respectively.
For `CN(C)CCCC1c2c[nH]c3c(=O)n(C)cc(c23)-c2cc(CS(C)(=O)=O)ccc2N1c1ccc(F)cc1F` (racemic) [Example 175, 4-(2,4-difluorophenyl)-3-(3-(dimethylamino)propyl)-10-methyl-7-((methylsulfonyl)methyl)-3,4-dihydro-1H-1,4,10-triazadibenzo[cd,f]azulen-11(10H)-one], in that order: 99.9 nM, 15 nM and 1.9 nM.
For `COc1cccc(OC)c1C1c2c[nH]c3c(=O)n(C)cc(c23)-c2cc(CS(C)(=O)=O)ccc2N1c1ccc(F)cc1F` (racemic) [Example 221, 4-(2,4-difluorophenyl)-3-(2,6-dimethoxyphenyl)-10-methyl-7-((methylsulfonyl)methyl)-3,4-dihydro-1H-1,4,10-triazadibenzo[cd,f]azulen-11(10H)-one], in that order: 33 nM, 31.6 nM and 12.3 nM.
The like results for `Cn1cc2c3c(c[nH]c3c1=O)C(CCN1C(=O)c3ccccc3C1=O)N(c1ccc(F)cc1F)c1ccc(CS(C)(=O)=O)cc1-2` (racemic) [Example 227, 2-(2-(4-(2,4-difluorophenyl)-10-methyl-7-((methylsulfonyl)methyl)-11-oxo-3,4,10,11-tetrahydro-1H-1,4,10-triazadibenzo[cd,f]azulen-3-yl)ethyl)isoindoline-1,3-dione] were, in that order, 134 nM, 7.94 nM and 1.18 nM.
Consider `Cn1cc2c3c(c[nH]c3c1=O)C(CCNC(=O)OCc1ccccc1)N(c1ccc(F)cc1F)c1ccc(CS(C)(=O)=O)cc1-2` (racemic) [Example 229, benzyl (2-(4-(2,4-difluorophenyl)-10-methyl-7-((methylsulfonyl)methyl)-11-oxo-3,4,10,11-tetrahydro-1H-1,4,10-triazadibenzo[cd,f]azulen-3-yl)ethyl)carbamate], for which the EC50 in test [1] is 41.2 nM. In addition, the inhibitory constant (Ki) was 4.11 nM in test [2] (setting [4]) and 1.96 nM in test [3] (setting [4]).
Turning to `Cn1cc2c3c(c[nH]c3c1=O)C(c1ccc(-n3ccnc3)cc1)N(c1ccc(F)cc1F)c1ccc(CS(C)(=O)=O)cc1-2` (racemic) [Example 234, 3-(4-(1H-imidazol-1-yl)phenyl)-4-(2,4-difluorophenyl)-10-methyl-7-((methylsulfonyl)methyl)-3,4-dihydro-1H-1,4,10-triazadibenzo[cd,f]azulen-11(10H)-one], the EC50 in test [1] is greater than 1000 nM. Further, the Ki in test [2] (setting [4]) is 10.3 nM; in test [3] (setting [4]), 9.4 nM.
The like results for `Cn1cc2c3c(c[nH]c3c1=O)C(c1ccc(C#N)cc1)N(c1ccc(F)cc1F)c1ccc(CS(C)(=O)=O)cc1-2` (racemic) [Example 235, 4-(4-(2,4-difluorophenyl)-10-methyl-7-((methylsulfonyl)methyl)-11-oxo-3,4,10,11-tetrahydro-1H-1,4,10-triazadibenzo[cd,f]azulen-3-yl)benzonitrile] were, in that order, 162 nM, 16.1 nM and 6.51 nM.
As for `Cn1cc2c3c(c[nH]c3c1=O)C(c1cccc(-c3ccccn3)c1)N(c1ccc(F)cc1F)c1ccc(CS(C)(=O)=O)cc1-2` (racemic) [Example 236, 4-(2,4-difluorophenyl)-10-methyl-7-((methylsulfonyl)methyl)-3-(3-(pyridin-2-yl)phenyl)-3,4-dihydro-1H-1,4,10-triazadibenzo[cd,f]azulen-11(10H)-one], the EC50 in test [1] was greater than 1000 nM. Further, the results for the Ki in test [2] (setting [4]) and in test [3] (setting [4]) were 85.9 nM and 30 nM, respectively.
Consider `Cn1cc2c3c(c[nH]c3c1=O)C(CCCOc1ccccc1)N(c1ccc(F)cc1F)c1ccc(CS(C)(=O)=O)cc1-2` (single isomer, unassigned) [Example 144], for which the EC50 in test [1] amounted to 318 nM. Also, the Ki in test [2] (setting [4]) is greater than 238 nM; in test [3] (setting [4]) it was 18.8 nM.
Take `Cn1cc2c3c(c[nH]c3c1=O)[C@@H](c1ccccc1)N(c1ccc(F)cc1F)c1ccc(CS(C)(=O)=O)cc1-2` (single isomer, unassigned) [Example 215]: the EC50 in test [1] was 454 nM. In addition, the Ki in test [2] (setting [4]) was found to be 65.7 nM; in test [3] (setting [4]), 5.87 nM.
Take `Cn1cc2c3c(c[nH]c3c1=O)C(Cn1ccccc1=O)N(c1ccc(F)cc1F)c1ccc(CS(C)(=O)=O)cc1-2` (single isomer, unassigned) [Example 252]: in test [1], the EC50 turned out to be 108 nM. Further, the Ki came to 16.1 nM in test [2] (setting [4]) and 2.24 nM in test [3] (setting [4]).
With `CCS(=O)(=O)c1ccc2c(c1)-c1cn(C)c(=O)c3[nH]cc(c13)CN2CC1CC1` [Example 2, 4-(cyclopropylmethyl)-7-(ethylsulfonyl)-10-methyl-3,4-dihydro-1H-1,4,10-triazadibenzo[cd,f]azulen-11(10H)-one], the EC50 in test [1] was found to be 19.2 nM. Also, the Ki amounted to 24.6 nM in test [2] (setting [5]) and 8.36 nM in test [3] (setting [5]).
The like results for `CCC1c2c[nH]c3c(=O)n(C)cc(c23)-c2cc(S(=O)(=O)CC)ccc2N1CC1CC1` (stereo not drawn) [Example 3, 4-(cyclopropylmethyl)-3-ethyl-7-(ethylsulfonyl)-10-methyl-3,4-dihydro-1H-1,4,10-triazadibenzo[cd,f]azulen-11(10H)-one] were, in that order, 48.7 nM, 46 nM and 8.91 nM.
For `Cn1cc2c3c(c[nH]c3c1=O)CN(CC1CC1)c1ncc(S(N)(=O)=O)cc1-2` [Example 10, 4-(cyclopropylmethyl)-10-methyl-11-oxo-3,4,10,11-tetrahydro-1H-1,4,5,10-tetraazadibenzo[cd,f]azulene-7-sulfonamide], in that order: 60.8 nM, 6.94 nM and 5.99 nM.
For `Cc1cnc2c(c1)-c1cn(C)c(=O)c3[nH]cc(c13)CN2c1ccc(F)cc1` [Example 11, 4-(4-fluorophenyl)-7,10-dimethyl-3,4-dihydro-1H-1,4,5,10-tetraazadibenzo[cd,f]azulen-11(10H)-one], in test [1], the EC50 worked out at 1.64 nM. For the same molecule, the Ki in test [2] (setting [4]) is 1.61 nM; in test [3] (setting [4]) it was 2.57 nM.
For `Cn1cc2c3c(c[nH]c3c1=O)CN(CC1CC1)c1ccccc1-2` [Example 13, 4-(cyclopropylmethyl)-10-methyl-3,4-dihydro-1H-1,4,10-triazadibenzo[cd,f]azulen-11(10H)-one], the EC50 in test [1] was determined as 7.26 nM. Besides, the Ki is 4.84 nM in test [2] (setting [4]) and 7.68 nM in test [3] (setting [4]).
For the molecule `COC(=O)CCC1c2c[nH]c3c(=O)n(C)cc(c23)-c2cc(CS(C)(=O)=O)ccc2N1CC1CC1` (stereo not drawn) [Example 14, methyl 3-(4-(cyclopropylmethyl)-10-methyl-7-((methylsulfonyl)methyl)-11-oxo-3,4,10,11-tetrahydro-1H-1,4,10-triazadibenzo[cd,f]azulen-3-yl)propanoate], in test [1], the EC50 is 14.6 nM. In addition, the Ki in test [2] (setting [5]) came to 6.9 nM; in test [3] (setting [5]), 0.882 nM.
On to `Cn1cc2c3c(c[nH]c3c1=O)C(Cc1ccccc1)Nc1ccc(CS(C)(=O)=O)cc1-2` (stereo not drawn) [Example 16, 3-benzyl-10-methyl-7-((methylsulfonyl)methyl)-3,4-dihydro-1H-1,4,10-triazadibenzo[cd,f]azulen-11(10H)-one], for which the EC50 in test [1] came to 337 nM. Moreover, the figures for the Ki in test [2] (setting [5]) and in test [3] (setting [5]) were 92.6 nM and 18.9 nM, respectively.
The like results for `Cn1cc2c3c(c[nH]c3c1=O)C(CCc1ccccc1)Nc1ccc(CS(C)(=O)=O)cc1-2` (stereo not drawn) [Example 18, 10-methyl-7-((methylsulfonyl)methyl)-3-phenethyl-3,4-dihydro-1H-1,4,10-triazadibenzo[cd,f]azulen-11(10H)-one] were, in that order, 343 nM, 145 nM and 24.1 nM.
For the molecule `Cn1cc2c3c(c[nH]c3c1=O)CN(c1ccc(F)cc1)c1ncc(N)cc1-2` [Example 21, 7-amino-4-(4-fluorophenyl)-10-methyl-3,4-dihydro-1H-1,4,5,10-tetraazadibenzo[cd,f]azulen-11(10H)-one], the EC50 in test [1] is 1.05 nM. Also, the inhibition constant Ki in test [2] (setting [4]) is 4.43 nM; in test [3] (setting [4]), 3 nM.

Source of the values: patent US10035800B2 (AbbVie Inc., priority 2013, dated 2018).
